{
  "source": "paper PMC5290001",
  "about": "(Clinical cancer research : an official journal of the …, 2016)",
  "key": {"[1]": {"assay": "Phase 1 dose escalation: toxicity", "type": "in vivo, human"}, "[2]": {"assay": "Temozolomide plasma pharmacokinetics", "type": "in vivo, human"}, "AML": {"test_system": "AML", "conditions": "cited from earlier work; for Response rate: temozolomide 200 mg/m^2/day x 7 days, adults ≥ 60 years"}, "[3]": {"test_system": "Ser139-phospho-H2AX (γH2AX)", "assay": "H2AX phosphorylation in viable peripheral blood cells and CD34+ subset", "type": "in vivo, human"}, "[4]": {"assay": "Veliparib plasma pharmacokinetics", "type": "in vivo, human", "conditions": "for half-life: human, plasma, oral"}, "[5]": {"conditions": "temozolomide 200 mg/m^2/day alone (day 3), veliparib dose 20–200 mg"}, "[6]": {"conditions": "single dose of veliparib, 6 hours, relative to pretreatment, DL5/DL6"}, "[7]": {"conditions": "veliparib 200 mg, administered alone"}},
  "note": "Several values for one entry are separate records, joined by “and”; a condition that tells them apart may be missing. Equal values may be shown once. Read-outs that look alike come from different tables or passages of the source.",
  "data": [
    {"smiles": "Cn1nnc2c(C(N)=O)ncn2c1=O", "note": "[Temozolomide, temozolomide]", "values": [
      {"measurement": "Temozolomide dose at the MTD / RP2D", "setting": "[1]; for 7 days, with veliparib 150 mg twice a day", "result": 200, "unit": "mg/m^2/day"},
      {"measurement": "Cmax", "setting": "[2]; human, plasma, oral, Cmax, temozolomide 200 mg/m^2/day in combination with veliparib 20–200 mg (day 8)", "result": "12 ± 3.8", "unit": "µg/mL"},
      {"measurement": "half-life", "setting": "[2]; human, plasma, oral, t1/2, temozolomide 200 mg/m^2/day in combination with veliparib 20–200 mg (day 8)", "result": "1.9 ± 0.4", "unit": "h"},
      {"measurement": "Tmax", "setting": "[2]; human, plasma, oral, tmax (median), temozolomide 200 mg/m^2/day in combination with veliparib 20–200 mg (day 8)", "result": 1, "unit": "h"},
      {"measurement": "Cl/F, Obs.", "setting": "[2]; [5]", "result": "9.2 ± 3.2", "unit": "L/h"},
      {"measurement": "V/F, Obs.", "setting": "[2]; [5]", "result": "25 ± 9.1", "unit": "L"},
      {"measurement": "V/F", "setting": "[2]; temozolomide 200 mg/m^2/day in combination with veliparib 20–200 mg (day 8)", "result": "28±10 (25) L"},
      {"measurement": "Overall response rate", "setting": "AML; MGMT+ cases", "result": 6, "unit": "%"},
      {"measurement": "Overall response rate", "setting": "AML; MGMT− AMLs", "result": 60, "unit": "%"},
      {"measurement": "Patients achieving a response", "setting": "AML; newly diagnosed AML or high-risk MDS with low MGMT expression", "result": 53, "unit": "%"},
      {"measurement": "Response rate", "setting": "AML; newly diagnosed AML", "result": 22, "unit": "%"},
      {"measurement": "Response rate", "setting": "AML; relapsed/refractory AML", "result": 5, "unit": "%"}
    ]},
    {"smiles": "C[C@]1(c2nc3c(C(N)=O)cccc3[nH]2)CCCN1", "note": "[Veliparib, veliparib]", "values": [
      {"measurement": "Increase in phospho-H2AX positive CD34+ cells", "setting": "[3]; 1 patient with HI, day 1", "result": 2.3, "unit": "fold"},
      {"measurement": "Patients with increased H2AX phosphorylation in CD34+ subset", "setting": "[3]; [6]", "result": "8 of 12"},
      {"measurement": "Patients with increased H2AX phosphorylation in PB cells", "setting": "[3]; [6]", "result": "4 of 12"},
      {"measurement": "Increase in H2AX phosphorylation in PB cells", "setting": "[3]; two patients who achieved CR", "result": "≥ 2", "unit": "fold"},
      {"measurement": "Increase in phospho-H2AX positive CD34+ cells", "setting": "[3]; two patients who achieved CR, day 1, 6 hours post- versus pre-treatment", "result": "2.3 fold and 1.3 fold"},
      {"measurement": "Maximum tolerated dose (MTD) / RP2D of veliparib", "setting": "[1]; given with temozolomide 200 mg/m^2 daily for 7 days, veliparib for 9 days", "result": 150, "unit": "mg twice daily"},
      {"measurement": "half-life", "setting": "[4]; t1/2, veliparib 120 mg in combination with temozolomide 200 mg/m^2/day (day 8)", "result": "9.1 ± 8", "unit": "h"},
      {"measurement": "half-life", "setting": "[4]; t1/2, veliparib 150 mg in combination with temozolomide 200 mg/m^2/day (day 8)", "result": "5.3 ± 1.7", "unit": "h"},
      {"measurement": "half-life", "setting": "[4]; t1/2, veliparib 200 mg in combination with temozolomide 200 mg/m^2/day (day 8)", "result": "3.6 ± 2.8", "unit": "h"},
      {"measurement": "V/F", "setting": "[4]; veliparib 20 mg alone (day 1), temozolomide dose 150 or 200 mg/m^2/day", "result": "285 ± 175", "unit": "L"},
      {"measurement": "V/F", "setting": "[4]; veliparib 20 mg in combination with temozolomide 150 or 200 mg/m^2/day (day 8)", "result": "180±49 (3) L"},
      {"measurement": "V/F", "setting": "[4]; veliparib 120 mg alone (day 1), temozolomide dose 200 mg/m^2/day", "result": "181±50 (10) L"},
      {"measurement": "V/F", "setting": "[4]; veliparib 120 mg in combination with temozolomide 200 mg/m^2/day (day 8)", "result": "191±165 (8) L"},
      {"measurement": "V/F", "setting": "[4]; veliparib 150 mg alone (day 1), temozolomide dose 200 mg/m^2/day", "result": "190±72 (16) L"},
      {"measurement": "V/F", "setting": "[4]; veliparib 150 mg in combination with temozolomide 200 mg/m^2/day (day 8)", "result": "109±45 (10) L"},
      {"measurement": "V/F", "setting": "[4]; veliparib 200 mg alone (day 1), temozolomide dose 200 mg/m^2/day", "result": "84±26 (4) L"},
      {"measurement": "V/F", "setting": "[4]; veliparib 200 mg in combination with temozolomide 200 mg/m^2/day (day 8)", "result": "77±59 (3) L"},
      {"measurement": "Increase in AUC at the highest administered dose", "setting": "[4]; [7]", "result": 1.4, "unit": "fold"},
      {"measurement": "Increase in Cmax at the highest administered dose", "setting": "[4]; [7]", "result": 2.5, "unit": "fold"}
    ]}
  ]
}
